Measurements from ChEMBL document CHEMBL5724914, “Linking interpersonal differences in gut microbiota composition and drug biotransformation activity” (2024).

How the values were obtained:
[1] = The drug is tested on WLS-038 corresponding to human gut metagenome with ENA study accession number: PRJEB37062 and ENA sample accession number: ERS12561745 for biotransformation under anaerobic condition. The drug concentrations were measured over 9 timepoints collected between 0 and 24 hours of incubation by liquid-chromatography-coupled mass spectrometry (LC–MS); conditions: 2 µM
[2] = human gut metagenome, 24 h, 2 µM
[3] = human gut metagenome, 24 h, 2 µM; remark: listed apart in the source
[4] = human gut metagenome, 24 h, 2 µM; remark: listed apart in the source
[5] = The drug is tested on Z-018 corresponding to pig gut metagenome with ENA study accession number: PRJEB37062 and ENA sample accession number: ERS12561817 for biotransformation under anaerobic condition. The drug concentrations were measured over 9 timepoints collected between 0 and 24 hours of incubation by liquid-chromatography-coupled mass spectrometry (LC–MS); conditions: 2 µM
[6] = The drug is tested on Z-023 corresponding to metagenome with ENA study accession number: PRJEB37062 and ENA sample accession number: ERS12561822 for biotransformation under anaerobic condition. The drug concentrations were measured over 9 timepoints collected between 0 and 24 hours of incubation by liquid-chromatography-coupled mass spectrometry (LC–MS); conditions: 2 µM
[7] = The drug is tested on Z-024 corresponding to pig gut metagenome with ENA study accession number: PRJEB37062 and ENA sample accession number: ERS12561823 for biotransformation under anaerobic condition. The drug concentrations were measured over 9 timepoints collected between 0 and 24 hours of incubation by liquid-chromatography-coupled mass spectrometry (LC–MS); conditions: 2 µM
[8] = The drug is tested on Z-026 corresponding to metagenome with ENA study accession number: PRJEB37062 and ENA sample accession number: ERS12561825 for biotransformation under anaerobic condition. The drug concentrations were measured over 9 timepoints collected between 0 and 24 hours of incubation by liquid-chromatography-coupled mass spectrometry (LC–MS); conditions: 2 µM
[9] = The drug is tested on WLS-086 corresponding to human gut metagenome with ENA study accession number: PRJEB37062 and ENA sample accession number: ERS12561752 for biotransformation under anaerobic condition. The drug concentrations were measured over 9 timepoints collected between 0 and 24 hours of incubation by liquid-chromatography-coupled mass spectrometry (LC–MS); conditions: 2 µM
[10] = The drug is tested on Z-028 corresponding to mouse gut metagenome with ENA study accession number: PRJEB37062 and ENA sample accession number: ERS12561827 for biotransformation under anaerobic condition. The drug concentrations were measured over 9 timepoints collected between 0 and 24 hours of incubation by liquid-chromatography-coupled mass spectrometry (LC–MS); conditions: 2 µM
[11] = The drug is tested on WLS-310 corresponding to human gut metagenome with ENA study accession number: PRJEB37062 and ENA sample accession number: ERS12561785 for biotransformation under anaerobic condition. The drug concentrations were measured over 9 timepoints collected between 0 and 24 hours of incubation by liquid-chromatography-coupled mass spectrometry (LC–MS); conditions: 2 µM
[12] = The drug is tested on WLS-220 corresponding to human gut metagenome with ENA study accession number: PRJEB37062 and ENA sample accession number: ERS12561769 for biotransformation under anaerobic condition. The drug concentrations were measured over 9 timepoints collected between 0 and 24 hours of incubation by liquid-chromatography-coupled mass spectrometry (LC–MS); conditions: 2 µM
[13] = The drug is tested on Z-021 corresponding to metagenome with ENA study accession number: PRJEB37062 and ENA sample accession number: ERS12561820 for biotransformation under anaerobic condition. The drug concentrations were measured over 9 timepoints collected between 0 and 24 hours of incubation by liquid-chromatography-coupled mass spectrometry (LC–MS); conditions: 2 µM
[14] = The drug is tested on Z-009 corresponding to pig gut metagenome with ENA study accession number: PRJEB37062 and ENA sample accession number: ERS12561809 for biotransformation under anaerobic condition. The drug concentrations were measured over 9 timepoints collected between 0 and 24 hours of incubation by liquid-chromatography-coupled mass spectrometry (LC–MS); conditions: 2 µM
[15] = The drug is tested on WLS-090 corresponding to human gut metagenome with ENA study accession number: PRJEB37062 and ENA sample accession number: ERS12561753 for biotransformation under anaerobic condition. The drug concentrations were measured over 9 timepoints collected between 0 and 24 hours of incubation by liquid-chromatography-coupled mass spectrometry (LC–MS); conditions: 2 µM
[16] = human gut metagenome, 24 h, 2 µM; remark: listed apart in the source
[17] = human gut metagenome, 24 h, 2 µM; remark: listed apart in the source
[18] = human gut metagenome, 24 h, 2 µM; remark: listed apart in the source
[19] = The drug is tested on Z-010 corresponding to metagenome with ENA study accession number: PRJEB37062 and ENA sample accession number: ERS12561810 for biotransformation under anaerobic condition. The drug concentrations were measured over 9 timepoints collected between 0 and 24 hours of incubation by liquid-chromatography-coupled mass spectrometry (LC–MS); conditions: 2 µM
[20] = human gut metagenome, 24 h, 2 µM; remark: listed apart in the source
Further: call rule not given here.

Bacterial Biotransformation [1] | Bacterial Biotransformation [2] | Bacterial Biotransformation [3] | Bacterial Biotransformation [4] | Bacterial Biotransformation [5] | Bacterial Biotransformation [6] | Bacterial Biotransformation [7] | Bacterial Biotransformation [8] | Bacterial Biotransformation [9] | Bacterial Biotransformation [10] | Bacterial Biotransformation [11] | Bacterial Biotransformation [12] | Bacterial Biotransformation [13] | Bacterial Biotransformation [14] | Bacterial Biotransformation [15] | Bacterial Biotransformation [16] | Bacterial Biotransformation [17] | Bacterial Biotransformation [18] | Bacterial Biotransformation [19] | Bacterial Biotransformation [20] | Compound
Compound NOT metabolized | Compound NOT metabolized | Compound NOT metabolized | Compound NOT metabolized | Compound NOT metabolized | Compound NOT metabolized | Compound NOT metabolized | Compound NOT metabolized | Compound metabolized | Compound NOT metabolized | Compound metabolized | Compound metabolized | Compound NOT metabolized | Compound NOT metabolized | Compound metabolized | Compound metabolized | Compound metabolized | Compound NOT metabolized | Compound metabolized | Compound NOT metabolized | C=C[C@H]1CN2CC[C@H]1C[C@H]2[C@H](O)c1ccnc2ccc(OC)cc12.C=C[C@H]1CN2CC[C@H]1C[C@H]2[C@H](O)c1ccnc2ccc(OC)cc12.O.O.O=S(=O)(O)O [QUININE SULFATE]
Compound metabolized | Compound metabolized | Compound metabolized | Compound metabolized | Compound metabolized | Compound NOT metabolized | Compound NOT metabolized | Compound metabolized | Compound metabolized | Compound metabolized | Compound metabolized | Compound metabolized | Compound NOT metabolized | Compound metabolized | Compound metabolized | Compound metabolized | Compound metabolized | Compound metabolized | Compound metabolized | Compound metabolized | CC(=O)O[C@]1(C(C)=O)CC[C@H]2[C@@H]3C=C(C)C4=CC(=O)CC[C@]4(C)[C@H]3CC[C@@]21C [MEGESTROL ACETATE]
Compound NOT metabolized | Compound NOT metabolized | Compound NOT metabolized | Compound NOT metabolized | Compound NOT metabolized | Compound NOT metabolized | Compound NOT metabolized | Compound NOT metabolized | Compound NOT metabolized | Compound NOT metabolized | Compound NOT metabolized | Compound NOT metabolized | Compound NOT metabolized | Compound metabolized | Compound NOT metabolized | Compound NOT metabolized | Compound NOT metabolized | Compound NOT metabolized | Compound NOT metabolized | Compound NOT metabolized | COc1cc(C(=O)NCc2ccc(OCCN(C)C)cc2)cc(OC)c1OC [TRIMETHOBENZAMIDE]
Compound metabolized | Compound metabolized | Compound NOT metabolized | Compound metabolized | Compound metabolized | Compound metabolized | Compound metabolized | Compound metabolized | Compound metabolized | Compound NOT metabolized | Compound metabolized | Compound metabolized | Compound metabolized | Compound metabolized | Compound metabolized | Compound NOT metabolized | Compound NOT metabolized | Compound NOT metabolized | Compound metabolized | Compound metabolized | CN[C@H]1CC[C@@H](c2ccc(Cl)c(Cl)c2)c2ccccc21 [SERTRALINE]
Compound metabolized | Compound metabolized | Compound metabolized | Compound NOT metabolized | Compound metabolized | Compound NOT metabolized | Compound NOT metabolized | Compound NOT metabolized | Compound metabolized | Compound metabolized | Compound metabolized | Compound metabolized | Compound NOT metabolized | Compound NOT metabolized | Compound metabolized | Compound NOT metabolized | Compound metabolized | Compound metabolized | Compound metabolized | Compound metabolized | CCc1oc2ccccc2c1C(=O)c1cc(Br)c(O)c(Br)c1 [BENZBROMARONE]
